Test systems include 786-0; CCRF-CEM; HCT-116; HCT-15; HOP-62; LXFL 529; NCI-H226; NCI-H460; SF-268; SK-MEL-5; SK-OV-3; SR; SW-620; TK-10; U-251; OVCAR-3; OVCAR-4; HOP-92.
What all share (assay): NCI tumour cell line growth inhibition, 48 h

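In this assay, cells in 96-well plates receive the compound at five concentrations for 48 hours. Endpoints are linearly interpolated between the surrounding concentrations. GI50: concentration for 50% inhibition of growth.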 The source made the active and inactive calls. Cut-off read from the data, not from the text of the source: active = GI50 up to about 1.1 µM and inactive = higher.

These results are taken from ChEMBL document CHEMBL1201862, “PubChem BioAssay data set” (2004).

As to `C=CN1C(=O)[C@H](Oc2ccccc2)[C@@H]1c1ccccc1`, the GI50 in the experiment with 786-0 was 18.9 µM (inactive); with CCRF-CEM it was 46.8 µM (inactive); in the experiment on HCT-116, 24.9 µM (inactive); in the experiment on HCT-15 it was 41.1 µM; in the experiment with HOP-62, 32.7 µM (inactive); in the experiment on LXFL 529 it was 31.4 µM (inactive). Further, the GI50 in the experiment on NCI-H226 is 44.4 µM (inactive); in the experiment with NCI-H460 it was 30.3 µM (inactive); in the experiment with SF-268, 37.2 µM (inactive); in the experiment on SK-MEL-5, 31.5 µM (inactive); in the experiment with SK-OV-3, 32.1 µM (inactive); in the experiment on SR, 40.3 µM (inactive). Besides, the GI50 with SW-620 was 33.3 µM (inactive); in the experiment with TK-10, 37.2 µM (inactive); in the experiment with U-251 it was 36.4 µM (inactive).
`CN(C)CC/C(=N\Nc1ccc(Cl)cc1Cl)c1ccccc1`: the GI50 is 13.7 µM (inactive) in the experiment with 786-0; 12.7 µM (inactive) in the experiment with CCRF-CEM; 13.8 µM (inactive) in the experiment on HCT-116; 12.4 µM in the experiment with HCT-15; 13.9 µM (inactive) in the experiment on HOP-62; 13.2 µM (inactive) in the experiment with LXFL 529. Further, the GI50 was 13.8 µM (inactive) in the experiment with NCI-H460; 14 µM (inactive) with OVCAR-3; > 10 µM (inactive) in the experiment on OVCAR-4; 14.6 µM (inactive) in the experiment with SK-MEL-5; 12.3 µM (inactive) with SK-OV-3; 12 µM (inactive) in the experiment with SR. In addition, the figures for the GI50 in the experiment on SW-620, in the experiment with TK-10 and in the experiment on U-251 were 16 µM (inactive), 15.1 µM (inactive) and 12.4 µM (inactive), respectively.
Turning to `O=C1c2ccccc2C(=O)N1C/C=N/NS(=O)(=O)c1cccc([N+](=O)[O-])c1`, the GI50 in the experiment on 786-0 was > 100 µM (inactive); in the experiment with CCRF-CEM, > 100 µM (inactive); in the experiment on HCT-116, > 100 µM (inactive); in the experiment with HCT-15, greater than 100 µM; in the experiment on HOP-62 it was > 100 µM (inactive); in the experiment with LXFL 529, > 100 µM (inactive). Also, the GI50 with NCI-H460, in the experiment on OVCAR-4, in the experiment with SF-268, with SK-MEL-5, in the experiment with SR and in the experiment with SW-620 was > 100 µM (inactive) each time. Also, the GI50 in the experiment with TK-10 and in the experiment on U-251 was > 100 µM (inactive) each time.
Consider `CNC1=Nc2ccc(Cl)cc2C(OP(=O)(N2CCOCC2)N2CCOCC2)=NC1`, for which the GI50 in the experiment on 786-0 is > 100 µM (inactive); in the experiment with CCRF-CEM, > 100 µM (inactive); in the experiment on HCT-116, > 100 µM (inactive); in the experiment with HCT-15 it was greater than 100 µM; in the experiment on LXFL 529, > 100 µM (inactive); in the experiment on NCI-H226, > 100 µM (inactive). Moreover, the GI50 with NCI-H460, in the experiment on OVCAR-3, in the experiment on OVCAR-4, in the experiment with SK-MEL-5, in the experiment with SR and with SW-620 was > 100 µM (inactive) in each case. The GI50 in the experiment with TK-10 and in the experiment on U-251 was > 100 µM (inactive) each time.
For `CCOC(=O)C1=C(c2ccccc2)NC(c2ccccc2)=C(C(=O)OCC)c2c1c(=O)cc[nH]c2=O`, the GI50 in the experiment on 786-0 was > 100 µM (inactive); in the experiment with HCT-116, > 100 µM (inactive); in the experiment with HCT-15, greater than 100 µM; with HOP-62 it was > 100 µM (inactive); with HOP-92, 71.6 µM (inactive); with LXFL 529, > 100 µM (inactive). Moreover, the GI50 in the experiment with NCI-H226 is > 100 µM (inactive); in the experiment on NCI-H460, > 100 µM (inactive); in the experiment on OVCAR-3, > 100 µM (inactive); with OVCAR-4, 92.3 µM (inactive); with SF-268 it was > 100 µM (inactive); in the experiment on SK-OV-3, > 100 µM (inactive). The GI50 was 83.8 µM (inactive) in the experiment on SR, > 100 µM (inactive) with SW-620, > 100 µM (inactive) in the experiment on TK-10 and > 100 µM (inactive) with U-251.
